Measured values from patent US5916906A, “Compositions comprising nicotinylalanine and an inhibitor of glycine conjugation or vitamin B6” (priority 1997, dated 1999).

Tests used:
HIV-1 infected cells = details: cultures of HIV-1 infected cells (Yamagoe 1991); cited from earlier work
kynureninase = details: co-factor for kynureninase (Takeuchi and Shibata 1984); cited from earlier work
[1] = system: poly (ADP-ribose) synthetase; details: crude or partially purified enzyme (Banasik 1992); cited from earlier work
[2] = human, in vivo; cited from earlier work
[3] = rodents (Shibata 1989); cited from earlier work
[4] = humans (Levy 1965); cited from earlier work
[5] = Plasma nicotinamide, NAL and NAL-X levels by HPLC after i.p. nicotinylalanine with or without ASA in uninfected mice; type: in vivo, C57BL/6 mice; details: ASA at 20 and 100 mg/kg added to NAL
Protocol: The concentration of nicotinamide and its major metabolites were determined by comparison of peak area ratios of the unknown versus internal standard (6-methylnicotinamide, Sigma Chemical Company) to the standard curves run in control mouse blood plasma.
Mice were treated with racemic nicotinylalanine alone (400 mg/kg) or in combination with acetyl salicylic acid (ASA) at a dose of either 20 mg/kg or 100 mg/kg body weight. […] Control mice received the vehicle for the drug compositions, being phosphate buffered saline (PBS), at the same volume on the same dose schedule as the drug-treated mice. Chronic dosing was performed daily for two weeks, Monday through Friday, and one group of mice received only a single (acute) dose of nicotinylalanine. All mice were killed two hours after their final dose and blood was collected by cardiac puncture and stored on ice, until centrifugation in a microfuge at 10,000 rpm to obtain plasma.
Concentrations of nicotinamide, nicotinamide-oxide, 1-methyl-nicotinamide, and nicotinylalanine extracted from 90% methanol, dried under N2, and reconstituted in water as above were determined by comparison of the peak area ratios of the unknown vs. the internal standard to the standard curve. Concentrations of the unidentified nicotinylalanine metabolite (NAL-X) were determined in the same way as above, except peaks were compared to the standard curve for known nicotinylalanine. The results are expressed as nanomoles of nicotinamide and nicotinylalanine per ml of plasma (nmol/ml).

NC(=O)c1ccccc1 [benzamide]
Antiviral activity (in words) (HIV-1 infected cells): significant antiviral activity

Cc1ncc(COP(=O)(O)O)c(C=O)c1O [pyridoxal phosphate]
Rate of conversion of nicotinylalanine to nicotinamide (in words) (kynureninase): increases the rate of conversion of nicotinylalanine to nicotinamide

NC(=O)c1cccnc1 [nicotinamide]
Antiviral activity (in words) (HIV-1 infected cells): significant antiviral activity
Inhibition of poly (ADP-ribose) synthetase (in words) [1]: effective inhibitors of poly (ADP-ribose) synthetase
Side effects [2]: without any significant side effects
Fraction converted to nicotinuric acid [3]: approximately 16%

CC(=O)Oc1ccccc1C(=O)O [ASA, acetylsalicylic acid, reference compound]
Fraction conjugated to form salicyluric acid [4]: up to 75%
Effect of added ASA on NAL-dependent nicotinamide plasma levels [5]: increases the NAL-dependent nicotinamide plasma levels in a dose-related manner
